Experiments:
reduction of GSSG = assay: Assay for the reduction of oxidized glutathione in PANOx-SP cell-free reactions; type: biochemical, E. coli
Procedure: For determining the effect of pH and IAM concentration on GSSG stabilization, the pH of S30 extracts was adjusted by first adding a small volume of 10 M KOH or HCl to the bottom of an Eppendorf tube. A much larger volume of S30 extract was then rapidly mixed with the small volume of acid or base. The pH was measured with a standardized micro-pH probe (Model 9810BN, Orion, Beverly, Mass.). Several 15 μL PANOx-SP reactions supplemented with 5 mM GSSG and the pK7CAT plasmid were prepared at each pH and IAM concentration. Single reactions were terminated at 15, 38, 60, 90, 120, and 180 minutes for each condition, and the concentration of SH groups was measured as described below.
Assay for the Reduction of Oxidized Glutathione. The reduction of oxidized glutathione was measured by monitoring the increase in concentration of sulfhydryl groups over time. The entire 15 μL in vitro synthesis reaction was diluted with an equal volume of 10% trichloroacetic acid and centrifuged for 10 minutes at 12,000×g and 4° C. Ten microliters of the supernatant was added to wells of a 96-well microtiter plate. To each well, 90 μL of 1 M Tris-HCl (pH 7.8) with 0.44 mg/mL DTNB (5,5′-dithiobis-2-nitrobenzoic acid, TCI America) was added. After 3 minutes at room temperature, the absorbance at 412 nm was measured and the concentration of free thiols determined by comparison to a standard curve determined with GSH solutions of known concentration.

[1] = target: T1, thioredoxin reductase (TrxB) (Escherichia coli, UniProt P0A9P4); assay: Assay for thioredoxin reductase activity after IAM treatment at various pHs; type: biochemical, E. coli; settings: 7 mM IAM, 30 minutes at room temperature
T1 construct: made in house; host or cells: cell-free (in vitro) synthesis reaction, E. coli extract
T1 sequence (P0A9P4 whole entry): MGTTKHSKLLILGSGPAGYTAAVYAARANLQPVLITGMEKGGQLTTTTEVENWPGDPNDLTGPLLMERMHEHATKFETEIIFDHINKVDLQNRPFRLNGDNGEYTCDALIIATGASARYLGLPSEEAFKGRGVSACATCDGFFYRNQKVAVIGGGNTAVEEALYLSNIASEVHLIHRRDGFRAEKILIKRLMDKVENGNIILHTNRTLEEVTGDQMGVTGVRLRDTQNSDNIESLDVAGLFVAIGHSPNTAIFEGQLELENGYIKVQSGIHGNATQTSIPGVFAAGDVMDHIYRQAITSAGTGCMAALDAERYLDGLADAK
Procedure: Assay for Thioredoxin Reductase Activity. Thioredoxin reductase was produced in in vitro synthesis reactions as described previously (Knapp and Swartz (2004) FEBS Lett 559:66-70). The pHs of aliquots of the unpurified reaction product were adjusted to the desired values with small volumes of concentrated KOH or HCl. These aliquots were then mixed with a small volume of IAM concentrate to obtain a final IAM concentration of 7 mM. These samples were incubated at room temperature for 30 minutes, and then the thioredoxin reductase activity of the samples was measured. The activity assay for thioredoxin reductase contained the following components: 50 mM NaH2PO4 pH 7.6, 1.5 mM EDTA, 10 mM glucose 6-phosphate, 200 μM DTNB, 300 μM NADPH, 3 μM E. coli thioredoxin (EMD Biosciences; Darmstadt, Germany), and 0.2 U glucose 6-phosphate dehydrogenase (Sigma). Approximately 500 ng of thioredoxin reductase was added to 1 mL of the assay mixture and the rate of increase in absorbance at 412 nm was measured for 90 seconds at 37° C. DTNB produces two molecules of nitrothiobenzoate when it is reduced. The extinction coefficient of nitrothiobenzoate (13,600 M^−1 cm^−1) was used to calculate the rate of reaction.

NC(=O)CI [IAM, iodoacetamide]
effect on sulfhydryl groups at IAM concentrations greater than 50 μM (reduction of GSSG; KGK10 extract): slow rate of oxidation of sulfhydryls | IAM concentration sufficient to eliminate the reduction of GSSG (reduction of GSSG; KGK10 extract, IAM treatment near physiological pH): 50 µM | IAM needed to stabilize the oxidized glutathione buffer, KGK10 extract versus KC6 extract (reduction of GSSG; in vitro synthesis reactions containing 5 mM GSSG): Twenty-fold less | pH at which IAM inactivation of TrxB begins to lose its effectiveness [1]: ~5.8

From patent publication US7871794B2, “Enhanced cell-free synthesis of active proteins containing disulfide bonds” (The Board of Trustees of the Leland Stanford Junior …, priority 2007, dated 2011)
